In US4552843A, “Process for producing an acidic polycyclic ether antibiotic by cultivation of a novel strain of Streptomyces endus subspecies aureus” (Pfizer Inc., priority 1984, dated 1985):
Values after ≈ are worked out from the molar mass of the structure shown. Like-named read-outs stand apart in the source and are kept apart here.

Assays:
[1] = system: Bacteroides vulgates; experiment: in vitro MIC test (Table I); type: cell-based; conditions: 24 h
Procedure: (§1) In Table I, below, the results of in vitro MIC tests are summarized. For this test each organism is inoculated in a series of test tubes of CP-63,517 to determine the minimal concentration of the antibiotic in mcg/ml which inhibits the growth of the organism over a period of 24 hours (MIC).

[2] = system: Bordatella bronchi; experiment: in vitro MIC test (Table I); type: cell-based; conditions: 24 h
Procedure: as §1

[3] = system: Corynebacterium pyogenes; experiment: in vitro MIC test (Table I); type: cell-based; conditions: 24 hours
Procedure: as §1

[4] = system: Erysip. rhusio; experiment: in vitro MIC test (Table I); type: cell-based; conditions: strain 04A005; 24 hours
Procedure: as §1

[5] = system: F. necrophorum; experiment: in vitro MIC test (Table I); type: cell-based; conditions: Fusobacterium necrophorum; strain 84C004; 24 hours
Procedure: as §1

[6] = system: Fusobacterium plauti; experiment: in vitro MIC test (Table I); type: cell-based; conditions: Flavonifractor plautii; strain 84G001; 24 hours
Procedure: as §1

[7] = system: Haemophilus parahemol.; experiment: in vitro MIC test (Table I); type: cell-based; conditions: strain 54B002, 24 hours
Procedure: as §1

[8] = system: L. catenaforme; experiment: in vitro MIC test (Table I); type: cell-based; conditions: strain 09C001; 24 hours
Procedure: as §1

[9] = system: Lactobacillus casei; experiment: in vitro MIC test (Table I); type: cell-based; conditions: Lacticaseibacillus casei; strain 09B001; 24 hours
Procedure: as §1

[10] = system: Moraxella bovis; experiment: in vitro MIC test (Table I); type: cell-based; conditions: strain 93A001, 24 hours
Procedure: as §1

[11] = system: P. haemolytica; experiment: in vitro MIC test (Table I); type: cell-based; conditions: Mannheimia haemolytica, 24 h
Procedure: as §1

[12] = system: Pasteurella multocida; experiment: in vitro MIC test (Table I); type: cell-based; conditions: 24 h
Procedure: as §1

[13] = system: Peptococcus sp.; experiment: in vitro MIC test (Table I); type: cell-based; conditions: strain 17B001; 24 hours
Procedure: as §1

[14] = system: Staphylococcus aureus; experiment: in vitro MIC test (Table I); type: cell-based; conditions: 24 h
Procedure: as §1

[15] = system: Staphylococcus epidermidis; experiment: in vitro MIC test (Table I); type: cell-based; conditions: 24 h
Procedure: as §1

[16] = system: Streptococcus pyogenes; experiment: in vitro MIC test (Table I); type: cell-based; conditions: strain 020054, 24 hours
Procedure: as §1

[17] = system: Treponema hyodysenteriae; experiment: in vitro MIC test (Table I); type: cell-based; conditions: for MIC: 24 hours
Procedure: as §1

[18] = system: Eimeria acervulina; experiment: efficacy against coccidial infections in chickens (Table II); type: in vivo; conditions: for Ratio: lesion score treated / infected control; for % Weight Gain / Average Degree of Infection: chicks; for Average Degree of Infection: lesion score 0 to 3, five days
Procedure: (§2) Efficacy data for Antibiotic CP-63,517 and its salts against coccidial infections in chickens was obtained in the following fashion. Groups of 3-5 ten-day old SPF white leghorn cockerel chicks were fed a mash diet containing Antibiotic CP-63,517, its sodium and/or potassium salt, or the known agents Monensin or Stenorol uniformly dispersed therein. After being on this ration for 24 hours each chick was inoculated per os with oocysts of the particular species of Eimeria being tested. Other groups of 3-5 ten-day old chicks were fed a similar mash diet free of any test compound. They were also infected after 24 hours and served as infected controls. Yet another group of 3-5 ten-day old chicks were fed the mash diet free of any test compound and were not infected with coccidia. These served as normal controls. The results of treatment were evaluated after five days in the case of E. acervulina, and six days for other challenges.
(§3) ^1 The criteria used to measure anticoccidial activity consisted of
(§4) lesion scores of 0 to 4 for Eimeria tenella after J. E. Lynch, "A New
(§5) Method for the Primary Evaluation of Anticoccidial Activity", Am. J. Vet.
(§6) modification of the scoring system devised by J. Johnson and W. H. Reid,
(§7) "Anticoccidial Drugs. Lesion Scoring Techniques in Battery and Floor Pen
(§8) Experiments in Chicks", Exp. Parasit. 28: 30-36 (1970). A constant ratio
(§9) was established by dividing the lesion score of each treated group by the
(§10) lesion score of the infected control.

[19] = system: Eimeria tenella; experiment: as above; type: in vivo; conditions: for Ratio: lesion score treated / infected control; for % Weight Gain / Average Degree of Infection: chicks; for Average Degree of Infection: lesion score 0 to 4, six days
Procedure: as §2, §3, §4, §5, §6, §7, §8, §9, §10

[20] = system: Gram-positive microorganisms; experiment: inhibitory action against growth of Gram-positive microorganisms; type: cell-based; conditions: in vitro
Procedure: as §1

[21] = 10 ppm in diet, replicate (in parentheses)
[22] = 20 ppm in diet, replicate (in parentheses)
[23] = 30 ppm in diet, replicate (in parentheses)
[24] = 40 ppm in diet, replicate (in parentheses)
[25] = diet of chickens at levels of 5 to 40 ppm

COC1CCC(OC2CC3(CC(O)C(C)C(C(C)C=C(C)C(=O)C(C)CC(C)C(=O)O)O3)OC2(C)C2CCC(C)C3(OC(C4OC(O)(CO)C(C)CC4C)CC3C)O2)OC1C (stereo not shown) [CP-63,517]
MIC [1]: 25 µg/mL (≈ 28.8 µM) | MIC ([2]; strain 73A006): 0.39 µg/mL (≈ 0.45 µM) | MIC ([2]; strain 73A016): 6.25 µg/mL (≈ 7.21 µM) | MIC ([3]; Trueperella pyogenes, strain 11D001, read-out: MIC): 12.5 µg/mL (≈ 14.4 µM) | MIC ([3]; strain 11D002): 12.5 µg/mL (≈ 14.4 µM) | MIC ([3]; strain 11D003): 12.5 µg/mL (≈ 14.4 µM) | MIC [4]: 0.39 µg/mL (≈ 0.45 µM) | MIC [5]: 25 µg/mL (≈ 28.8 µM) | MIC [6]: 0.39 µg/mL (≈ 0.45 µM) | MIC [7]: 25 µg/mL (≈ 28.8 µM) | MIC [8]: 0.39 µg/mL (≈ 0.45 µM) | MIC [9]: 0.39 µg/mL (≈ 0.45 µM) | MIC [10]: 50 µg/mL (≈ 57.7 µM) | MIC ([11]; strain 59B018): 0.39 µg/mL (≈ 0.45 µM) | MIC ([11]; strain 59B046): 0.39 µg/mL (≈ 0.45 µM) | MIC ([11]; strain 59B061): 50 µg/mL (≈ 57.7 µM) | MIC ([12]; strain 59A013): 50 µg/mL (≈ 57.7 µM) | MIC ([12]; strain 59A048): 0.39 µg/mL (≈ 0.45 µM) | MIC [13]: ≤ 0.1 µg/mL | MIC ([14]; strain 01A005): 0.39 µg/mL (≈ 0.45 µM) | MIC ([14]; strain 01A052): 0.39 µg/mL (≈ 0.45 µM) | MIC ([14]; strain 01A106): 0.78 µg/mL (≈ 0.9 µM) | MIC ([14]; strain 01A110): 0.39 µg/mL (≈ 0.45 µM) | MIC ([14]; strain 01A539): 0.78 µg/mL (≈ 0.9 µM) | MIC ([14]; strain 01A543): 3.12 µg/mL (≈ 3.6 µM) | MIC ([15]; strain 01B087): 0.78 µg/mL (≈ 0.9 µM) | MIC ([15]; strain 01B111): 0.39 µg/mL (≈ 0.45 µM) | MIC [16]: 0.1 µg/mL (≈ 0.115 µM) | MIC ([17]; Brachyspira hyodysenteriae, strain 94A001, read-out: MIC): 6.25 µg/mL (≈ 7.21 µM) | activity against Treponema hyodysenteriae ([17]; in vitro): possesses activity against Treponema hyodysenteriae | MIC ([17]; strain 94A002): 6.25 µg/mL (≈ 7.21 µM) | Ratio ([18]; 5 ppm in diet): 1.10 | Ratio ([18]; 10 ppm in diet): 0.50 | Ratio [18, 21]: 0.30 | Ratio ([18]; 20 ppm in diet): 0.40 | Ratio [18, 22]: 0.20 | Ratio ([18]; 30 ppm in diet): 0.20 | Ratio [18, 23]: 0.30 | Ratio ([18]; 40 ppm in diet): 0.60 | Ratio [18, 24]: 0.60 | % Weight Gain ([18]; 5 ppm in diet): 11% | Average Degree of Infection ([18]; 5 ppm in diet): 2.2 | % Weight Gain ([18]; 10 ppm in diet): 40% | Average Degree of Infection ([18]; 10 ppm in diet): 1.0 | Average Degree of Infection [18, 21]: 0.6 | % Weight Gain [18, 21]: 0% | % Weight Gain ([18]; 20 ppm in diet): 30% | Average Degree of Infection ([18]; 20 ppm in diet): 0.8 | Average Degree of Infection [18, 22]: 0.4 | % Weight Gain [18, 22]: 60% | % Weight Gain ([18]; 30 ppm in diet): 0% | Average Degree of Infection ([18]; 30 ppm in diet): 0.4 | Average Degree of Infection [18, 23]: 0.6 | % Weight Gain [18, 23]: 0% | % Weight Gain ([18]; 40 ppm in diet): 0% | Average Degree of Infection ([18]; 40 ppm in diet): 1.2 | Average Degree of Infection [18, 24]: 1.2 | % Weight Gain [18, 24]: 0% | control of infections due to E. acervulina [18, 25]: effective in controlling infections | Ratio ([19]; 5 ppm in diet): 0.3 | Ratio ([19]; 10 ppm in diet): 0.0 | Ratio [19, 21]: 0.3 | Ratio ([19]; 20 ppm in diet): 0.0 | Ratio [19, 22]: 0.0 | Ratio ([19]; 30 ppm in diet): 0.0 | Ratio [19, 23]: 0.0 | Ratio ([19]; 40 ppm in diet): 0.0 | Ratio [19, 24]: 0.0 | % Weight Gain ([19]; 5 ppm in diet): 63% | Average Degree of Infection ([19]; 5 ppm in diet): 1.0 | % Weight Gain ([19]; 10 ppm in diet): 36% | Average Degree of Infection ([19]; 10 ppm in diet): 0.0 | Average Degree of Infection [19, 21]: 1.0 | % Weight Gain [19, 21]: 66% | % Weight Gain ([19]; 20 ppm in diet): 14% | Average Degree of Infection ([19]; 20 ppm in diet): 0.0 | Average Degree of Infection [19, 22]: 0.0 | % Weight Gain [19, 22]: 26% | % Weight Gain ([19]; 30 ppm in diet): 0% | Average Degree of Infection ([19]; 30 ppm in diet): 0.0 | Average Degree of Infection [19, 23]: 0.0 | % Weight Gain [19, 23]: 23% | % Weight Gain ([19]; 40 ppm in diet): 0% | Average Degree of Infection ([19]; 40 ppm in diet): 0.0 | Average Degree of Infection [19, 24]: 0.0 | % Weight Gain [19, 24]: 2% | control of infections due to Eimeria tenella [19, 25]: effective in controlling infections | antibacterial / growth inhibitory activity [20]: exhibits inhibitory action against the growth of a number of Gram-positive microorganisms
